Data published in ChEMBL document CHEMBL3885881, “DrugMatrix”.

Organism: Rattus norvegicus
Assay: DrugMatrix - Regimen: Daily Repeat
Type: toxicity, organism-based, Sprague-Dawley
Parameters: regimen Daily Repeat, gender Male, age 6-8 weeks
Details: in vivo, iv, vehicle 100 % SALINE; for ABSOLUTE BASOPHIL / ABSOLUTE EOSINOPHIL / ABSOLUTE LYMPHOCYTE / ABSOLUTE MONOCYTE / ABSOLUTE SEGMENTED NEUTROPHIL / BASOPHIL / EOSINOPHIL / ERYTHROCYTE COUNT / HEMATOCRIT / HEMOGLOBIN / LEUKOCYTE COUNT / LYMPHOCYTE / MEAN CORPUSCULAR HEMOGLOBIN / MEAN CORPUSCULAR HEMOGLOBIN CONCENTRATION / MEAN CORPUSCULAR VOLUME / MONOCYTE / NEUTROPHIL / NUCLEATED RED BLOOD CELLS / PLATELET COUNT: tissue Blood; for ALANINE AMINOTRANSFERASE / ALBUMIN / ALKALINE PHOSPHATASE / ASPARTATE AMINOTRANSFERASE / BLOOD UREA NITROGEN / CARBON DIOXIDE / CHLORIDE / CHOLESTEROL / CREATINE PHOSPHOKINASE / CREATININE / GLUCOSE / LACTATE DEHYDROGENASE / LIPASE / PHOSPHORUS / POTASSIUM / SODIUM / TOTAL BILIRUBIN / TOTAL PROTEIN / URIC ACID: tissue Plasma
[1] = 200 mg/kg, 120 h, dose level Low, time 5 day
[2] = 800 mg/kg, 72 h, dose level High, time 3 day
[3] = 800 mg/kg, 120 h, dose level High, time 5 day

CC1(C)S[C@@H]2[C@H](NC(=O)[C@H](NC(=O)N3CCNC3=O)c3ccccc3)C(=O)N2[C@H]1C(=O)O [AZLOCILLIN]
ABSOLUTE BASOPHIL [1]: 0 CELLS/uL | ABSOLUTE EOSINOPHIL [1]: 0 CELLS/uL | ABSOLUTE LYMPHOCYTE [1]: 10606.67 CELLS/uL | ABSOLUTE MONOCYTE [1]: 46.67 CELLS/uL | ABSOLUTE SEGMENTED NEUTROPHIL [1]: 980 CELLS/uL | BASOPHIL [1]: 0% | EOSINOPHIL [1]: 0% | ERYTHROCYTE COUNT [1]: 5.98 x10E6/uL | HEMATOCRIT [1]: 35.9% | HEMOGLOBIN [1]: 14.17 G/DL | LEUKOCYTE COUNT [1]: 11.63 x10E3/uL | LYMPHOCYTE [1]: 91.33% | MEAN CORPUSCULAR HEMOGLOBIN [1]: 23.7 pg | MEAN CORPUSCULAR HEMOGLOBIN CONCENTRATION [1]: 39.5 G/DL | MEAN CORPUSCULAR VOLUME [1]: 60.07 fL | MONOCYTE [1]: 0.33% | NEUTROPHIL [1]: 8.33% | NUCLEATED RED BLOOD CELLS [1]: 0.33 /100WBC | PLATELET COUNT [1]: 1262 x10E3/uL | ALANINE AMINOTRANSFERASE [1]: 76 u/L | ALBUMIN [1]: 4.17 G/DL | ALKALINE PHOSPHATASE [1]: 302.33 u/L | ASPARTATE AMINOTRANSFERASE [1]: 91.67 u/L | BLOOD UREA NITROGEN [1]: 17.67 mg/dL | CARBON DIOXIDE [1]: 25.67 mmol/L | CHLORIDE [1]: 101 MEQ/L | CHOLESTEROL [1]: 73 mg/dL | CREATINE PHOSPHOKINASE [1]: 333.33 u/L | CREATININE [1]: 0.19 mg/dL | GLUCOSE [1]: 172.67 mg/dL | LACTATE DEHYDROGENASE [1]: 301 u/L | LIPASE [1]: 9.33 u/L | PHOSPHORUS [1]: 11.1 mg/dL | POTASSIUM [1]: 5.74 MEQ/L | SODIUM [1]: 144.37 MEQ/L | TOTAL BILIRUBIN [1]: 0.13 mg/dL | TOTAL PROTEIN [1]: 6.33 G/DL | URIC ACID [1]: 1.6 mg/dL | ABSOLUTE BASOPHIL [2]: 0 CELLS/uL | ABSOLUTE EOSINOPHIL [2]: 64.67 CELLS/uL | ABSOLUTE LYMPHOCYTE [2]: 11014.33 CELLS/uL | ABSOLUTE MONOCYTE [2]: 68.67 CELLS/uL | ABSOLUTE SEGMENTED NEUTROPHIL [2]: 1119 CELLS/uL | BASOPHIL [2]: 0% | EOSINOPHIL [2]: 0.33% | ERYTHROCYTE COUNT [2]: 5.5 x10E6/uL | HEMATOCRIT [2]: 34.53% | HEMOGLOBIN [2]: 13.63 G/DL | LEUKOCYTE COUNT [2]: 12.27 x10E3/uL | LYMPHOCYTE [2]: 90.67% | MEAN CORPUSCULAR HEMOGLOBIN [2]: 24.87 pg | MEAN CORPUSCULAR HEMOGLOBIN CONCENTRATION [2]: 39.5 G/DL | MEAN CORPUSCULAR VOLUME [2]: 62.9 fL | MONOCYTE [2]: 0.67% | NEUTROPHIL [2]: 8.33% | NUCLEATED RED BLOOD CELLS [2]: 0 /100WBC | PLATELET COUNT [2]: 1200 x10E3/uL | ALANINE AMINOTRANSFERASE [2]: 47.33 u/L | ALBUMIN [2]: 4.13 G/DL | ALKALINE PHOSPHATASE [2]: 350 u/L | ASPARTATE AMINOTRANSFERASE [2]: 79.33 u/L | BLOOD UREA NITROGEN [2]: 15.67 mg/dL | CARBON DIOXIDE [2]: 32.67 mmol/L | CHLORIDE [2]: 98.33 MEQ/L | CHOLESTEROL [2]: 83 mg/dL | CREATINE PHOSPHOKINASE [2]: 313.33 u/L | CREATININE [2]: 0.15 mg/dL | GLUCOSE [2]: 135.67 mg/dL | LACTATE DEHYDROGENASE [2]: 118 u/L | LIPASE [2]: 9.67 u/L | PHOSPHORUS [2]: 10.5 mg/dL | POTASSIUM [2]: 6.4 MEQ/L | SODIUM [2]: 143.1 MEQ/L | TOTAL BILIRUBIN [2]: 0.23 mg/dL | TOTAL PROTEIN [2]: 5.9 G/DL | URIC ACID [2]: 1.33 mg/dL | ABSOLUTE BASOPHIL [3]: 0 CELLS/uL | ABSOLUTE EOSINOPHIL [3]: 0 CELLS/uL | ABSOLUTE LYMPHOCYTE [3]: 11750 CELLS/uL | ABSOLUTE MONOCYTE [3]: 375 CELLS/uL | ABSOLUTE SEGMENTED NEUTROPHIL [3]: 375 CELLS/uL | BASOPHIL [3]: 0% | EOSINOPHIL [3]: 0% | ERYTHROCYTE COUNT [3]: 6.36 x10E6/uL | HEMATOCRIT [3]: 36.8% | HEMOGLOBIN [3]: 14.2 G/DL | LEUKOCYTE COUNT [3]: 12.5 x10E3/uL | LYMPHOCYTE [3]: 94% | MEAN CORPUSCULAR HEMOGLOBIN [3]: 22.3 pg | MEAN CORPUSCULAR HEMOGLOBIN CONCENTRATION [3]: 38.6 G/DL | MEAN CORPUSCULAR VOLUME [3]: 57.9 fL | MONOCYTE [3]: 3% | NEUTROPHIL [3]: 3% | NUCLEATED RED BLOOD CELLS [3]: 0 /100WBC | PLATELET COUNT [3]: 1139 x10E3/uL | ALANINE AMINOTRANSFERASE [3]: 42 u/L | ALBUMIN [3]: 3.7 G/DL | ALKALINE PHOSPHATASE [3]: 225 u/L | ASPARTATE AMINOTRANSFERASE [3]: 68 u/L | BLOOD UREA NITROGEN [3]: 22 mg/dL | CARBON DIOXIDE [3]: 25 mmol/L | CHLORIDE [3]: 102 MEQ/L | CHOLESTEROL [3]: 82 mg/dL | CREATINE PHOSPHOKINASE [3]: 168 u/L | CREATININE [3]: 0.27 mg/dL | GLUCOSE [3]: 198 mg/dL | LACTATE DEHYDROGENASE [3]: 104 u/L | LIPASE [3]: 9 u/L | PHOSPHORUS [3]: 10.1 mg/dL | POTASSIUM [3]: 5.6 MEQ/L | SODIUM [3]: 144.4 MEQ/L | TOTAL BILIRUBIN [3]: 0.2 mg/dL | TOTAL PROTEIN [3]: 6.1 G/DL | URIC ACID [3]: 2.2 mg/dL
